The values below come from US20260015353A1, “NOVEL COMPOUNDS” (Hoffmann-La Roche Inc., priority 2022, published 2026).

Bounds are passed on as bounds.

In general, IC50 refers to the concentration that inhibits the measured activity by half.

Test [1] has as its target T1, NLRP3 (Homo sapiens, UniProt Q96P20). The test is described as follows: THP-1 cells pyroptosis assay (LPS + nigericin, resazurin readout). It counts as cell-based. The arrangement: Seed THP-1 cells (25,000cells/well) containing 1.0 μg/ml LPS; host or cells: THP-1 cells, LPS-primed, nigericin-stimulated. As to conditions: 1.0 μg/ml LPS, compound 3 hours, nigericin 5 μM 1 hr. The procedure:
THP-1 cells (ATCC #TIB-202) were grown in RPMI containing L-glutamine (Gibco #11835) supplemented with 1 mM sodium pyruvate (Sigma #S8636) and penicillin (100 units/ml)/streptomycin (0.1 mg/ml) (Sigma #P4333) in 10% Fetal Bovine Serum (FBS) (Sigma #F0804). The cells were routinely passaged and grown to confluency (˜10^6cells/ml). On the day of the experiment, THP-1 cells were harvested and resuspended into RPMI medium (without FBS). The cells were then counted and viability (>90%) checked by Trypan blue (Sigma #T8154). Appropriate dilutions were made to give a concentration of 625,000cells/ml. To this diluted cell solution was added LPS (Sigma #L4524) to give a lug/ml Final Assay Concentration (FAC). 40 μl of the final preparation was aliquoted into each well of a 96-well plate. The plate thus prepared was used for compound screening.
The following method step-by-step assay was followed for compound screening. • 1. Seed THP-1 cells (25,000cells/well) containing 1.0 μg/ml LPS in 40 μl of RPMI medium (without FBS) in 96-well, black walled, clear bottom cell culture plates coated with poly-D-lysine (VWR #734-0317) • 2. Add 5 μl compound (8 points half-log dilution, with 10 μM top dose) or vehicle (DMSO 0.1% FAC) to the appropriate wells • 3. Incubate for 3 hours at 37° C., 5% CO2 • 4. Add 5 μl nigericin (Sigma #N7143) (FAC 5 μM) to all wells • 5. Incubate for 1 hr at 37° C., 5% CO2 • 6. At the end of the incubation period, spin plates at 300×g for 3 mins and remove supernatant • 7. Then add 50 μl of resazurin (Sigma #R^7017) (FAC 100 μM resazurin in RPMI medium without FBS) and incubate plates for a further 1-2 hours at 37° C. and 5% CO2 • 8. Plates were read in an Envision reader at Ex 560 nm and Em 590 nm • 9. IC50 data is fitted to a non-linear regression equation (log inhibitor vs response-variable slope 4-parameters)
(In general: Alamar Blue is a resazurin reagent that responds to reducing activity.)

Test [2] addresses T1, NLRP3. The test can be described thus: Human whole blood IL-1β release assay (LPS + nigericin, AlphaLisa). It counts as cell-based. The arrangement: Human whole blood in Li-heparin tubes was obtained from healthy donors; from tissue; host or cells: human whole blood from healthy donors, LPS-primed, nigericin-stimulated. The settings on record: 1 ug/ml LPS, compound 3 hours, nigericin 10 μM 1 hr, IL-1β in supernatant. On the procedure:
For systemic delivery, the ability to inhibit NLRP3 when the compounds are present within the bloodstream is of great importance. For this reason, the NLRP3 inhibitory activity of a number of compounds in human whole blood was investigated in accordance with the following protocol.
Human whole blood in Li-heparin tubes was obtained from healthy donors from a volunteer donor panel. • 1. Plate out 80 μl of whole blood containing lug/ml of LPS in 96-well, clear bottom cell culture plate (Corning #3585) • 2. Add 10 μl compound (8 points half-log dilution with 10 μM top dose) or vehicle (DMSO 0.1% FAC) to the appropriate wells • 3. Incubate for 3 hours at 37° C., 5% CO2 • 4. Add 10 μl nigericin (Sigma #N7143) (10 μM FAC) to all wells • 5. Incubate for 1 hr at 37° C., 5% CO2 • 6. At the end of the incubation period, spin plates at 300×g for 5 mins to pellet cells and remove 20 μl of supernatant and add to 96-well v-bottom plates for IL-1β analysis (note: these plates containing the supernatants can be stored at −80° C. to be analysed at a later date) • 7. IL-1β was measured according to the manufacturer protocol (Perkin Elmer-AlphaLisa IL-1 Kit AL220F-5000) • 8. IC50 data is fitted to a non-linear regression equation (log inhibitor vs response-variable slope 4-parameters)
In general terms: Bead proximity is the source of the signal in Alpha formats.

T1 sequence (Q96P20 whole entry): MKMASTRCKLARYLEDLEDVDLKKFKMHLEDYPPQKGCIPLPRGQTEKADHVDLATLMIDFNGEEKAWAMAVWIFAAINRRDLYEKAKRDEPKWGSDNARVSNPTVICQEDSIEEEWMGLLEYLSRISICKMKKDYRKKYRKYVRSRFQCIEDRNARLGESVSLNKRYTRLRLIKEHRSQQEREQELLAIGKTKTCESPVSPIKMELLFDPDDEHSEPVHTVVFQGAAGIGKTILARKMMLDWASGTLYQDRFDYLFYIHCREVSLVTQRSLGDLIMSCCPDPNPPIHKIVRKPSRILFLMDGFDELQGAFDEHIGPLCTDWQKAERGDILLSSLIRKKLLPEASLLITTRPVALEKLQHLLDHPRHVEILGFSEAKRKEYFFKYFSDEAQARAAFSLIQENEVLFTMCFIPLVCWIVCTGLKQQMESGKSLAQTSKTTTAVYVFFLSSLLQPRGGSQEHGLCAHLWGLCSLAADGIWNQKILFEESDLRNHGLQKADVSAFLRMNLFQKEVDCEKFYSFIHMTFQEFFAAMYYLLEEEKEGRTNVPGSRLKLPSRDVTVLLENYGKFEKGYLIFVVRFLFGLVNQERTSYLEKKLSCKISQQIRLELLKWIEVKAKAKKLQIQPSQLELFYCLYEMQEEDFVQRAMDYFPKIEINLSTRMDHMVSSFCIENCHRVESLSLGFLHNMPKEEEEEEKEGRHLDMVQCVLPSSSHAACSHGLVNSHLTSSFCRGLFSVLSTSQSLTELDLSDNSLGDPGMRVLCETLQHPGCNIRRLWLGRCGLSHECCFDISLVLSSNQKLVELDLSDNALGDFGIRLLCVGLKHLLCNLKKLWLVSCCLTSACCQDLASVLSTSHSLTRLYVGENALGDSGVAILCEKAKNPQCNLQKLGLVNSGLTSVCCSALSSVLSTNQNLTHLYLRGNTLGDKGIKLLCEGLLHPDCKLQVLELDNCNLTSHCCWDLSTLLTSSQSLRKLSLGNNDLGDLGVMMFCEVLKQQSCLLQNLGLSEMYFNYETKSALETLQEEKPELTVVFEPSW

As to `CCN1CCC2CCN(c3nnc(-c4ccc5c(c4O)CCO5)c(C)n3)C2C1` (single isomer, unassigned) [Example 1A, 5-[3-[(3aS,7aR)-6-Ethyl-3,3a,4,5,7,7a-hexahydro-2H-pyrrolo[2,3-c]pyridin-1-yl]-5-methyl-1,2,4-triazin-6-yl]-2,3-dihydrobenzofuran-4-ol or 5-[3-[(3aR,7aS)-6-ethyl-3,3a,4,5,7,7a-hexahydro-2H-pyrrolo[2,3-c]pyridin-1-yl]-5-methyl-1,2,4-triazin-6-yl]-2,3-dihydrobenzofuran-4-ol], the IC50 on NLRP3 [1] was 1.8 nM; on NLRP3 [2] it was 12 nM. For `CCN1CCC2CCN(c3nnc(-c4ccc5c(c4O)CCO5)c(C)n3)C2C1` (single isomer, unassigned) [Example 1B, 5-[3-[(3aR,7aS)-6-Ethyl-3,3a,4,5,7,7a-hexahydro-2H-pyrrolo[2,3-c]pyridin-1-yl]-5-methyl-1,2,4-triazin-6-yl]-2,3-dihydrobenzofuran-4-ol or 5-[3-[(3aS,7aR)-6-ethyl-3,3a,4,5,7,7a-hexahydro-2H-pyrrolo[2,3-c]pyridin-1-yl]-5-methyl-1,2,4-triazin-6-yl]-2,3-dihydrobenzofuran-4-ol], the IC50 stood at 64.4 nM at NLRP3 [1] and 375 nM on NLRP3 [2]. The like results for `CCN1CC[C@H]2CCN(c3nnc(-c4ccc(C#N)cc4O)c(C)n3)[C@H]2C1` (single isomer, unassigned) [Example 2A, 4-[3-[(3aS,7aR)-6-Ethyl-3,3a,4,5,7,7a-hexahydro-2H-pyrrolo[2,3-c]pyridin-1-yl]-5-methyl-1,2,4-triazin-6-yl]-3-hydroxy-benzonitrile or 4-[3-[(3aR,7aS)-6-ethyl-3,3a,4,5,7,7a-hexahydro-2H-pyrrolo[2,3-c]pyridin-1-yl]-5-methyl-1,2,4-triazin-6-yl]-3-hydroxy-benzonitrile] were, in that order, 36.4 nM and 38 nM. As to `CCN1CCC2CCN(c3nnc(-c4ccc(C#N)cc4O)c(C)n3)C2C1` (single isomer, unassigned) [Example 2B, 4-[3-[(3aR,7aS)-6-Ethyl-3,3a,4,5,7,7a-hexahydro-2H-pyrrolo[2,3-c]pyridin-1-yl]-5-methyl-1,2,4-triazin-6-yl]-3-hydroxy-benzonitrile or 4-[3-[(3aS,7aR)-6-ethyl-3,3a,4,5,7,7a-hexahydro-2H-pyrrolo[2,3-c]pyridin-1-yl]-5-methyl-1,2,4-triazin-6-yl]-3-hydroxy-benzonitrile], on NLRP3 [1], the IC50 is above 1000 nM. As for `Cc1nc(N2CC[C@@H]3CCN(C)C[C@@H]32)nnc1-c1ccc2c(c1O)CCO2` (single isomer, unassigned) [Example 3A, 5-[3-[(3aS,7aR)-6-Methyl-3,3a,4,5,7,7a-hexahydro-2H-pyrrolo[2,3-c]pyridin-1-yl]-5-methyl-1,2,4-triazin-6-yl]-2,3-dihydrobenzofuran-4-ol or 5-[3-[(3aR,7aS)-6-methyl-3,3a,4,5,7,7a-hexahydro-2H-pyrrolo[2,3-c]pyridin-1-yl]-5-methyl-1,2,4-triazin-6-yl]-2,3-dihydrobenzofuran-4-ol], the IC50 on NLRP3 [1] turned out to be 1.9 nM; on NLRP3 [2], 7 nM. Taken in the same sequence, the figures for `Cc1nc(N2CCC3CCN(C)CC32)nnc1-c1ccc2c(c1O)CCO2` (single isomer, unassigned) [Example 3B, 5-[3-[(3aR,7aS)-6-Methyl-3,3a,4,5,7,7a-hexahydro-2H-pyrrolo[2,3-c]pyridin-1-yl]-5-methyl-1,2,4-triazin-6-yl]-2,3-dihydrobenzofuran-4-ol or 5-[3-[(3aS,7aR)-6-methyl-3,3a,4,5,7,7a-hexahydro-2H-pyrrolo[2,3-c]pyridin-1-yl]-5-methyl-1,2,4-triazin-6-yl]-2,3-dihydrobenzofuran-4-ol] were 52.2 nM and 115 nM. Taken in the same sequence, the figures for `Cc1nc(N2CC[C@@H]3CCN(C)C[C@@H]32)nnc1-c1ccc(C#N)cc1O` (single isomer, unassigned) [Example 4A, 4-[3-[(3aS,7aR)-6-Methyl-3,3a,4,5,7,7a-hexahydro-2H-pyrrolo[2,3-c]pyridin-1-yl]-5-methyl-1,2,4-triazin-6-yl]-3-hydroxy-benzonitrile or 4-[3-[(3aR,7aS)-6-methyl-3,3a,4,5,7,7a-hexahydro-2H-pyrrolo[2,3-c]pyridin-1-yl]-5-methyl-1,2,4-triazin-6-yl]-3-hydroxy-benzonitrile] were 47.4 nM and 41 nM. Regarding `Cc1nc(N2CCC3CCN(C)CC32)nnc1-c1ccc(C#N)cc1O` (single isomer, unassigned) [Example 4B, 4-[3-[(3aR,7aS)-6-Methyl-3,3a,4,5,7,7a-hexahydro-2H-pyrrolo[2,3-c]pyridin-1-yl]-5-methyl-1,2,4-triazin-6-yl]-3-hydroxy-benzonitrile or 4-[3-[(3aS,7aR)-6-methyl-3,3a,4,5,7,7a-hexahydro-2H-pyrrolo[2,3-c]pyridin-1-yl]-5-methyl-1,2,4-triazin-6-yl]-3-hydroxy-benzonitrile], on NLRP3 [1], the IC50 was above 1000 nM.
